From PubChem BioAssay (NCI) come the findings set out here.

Test systems include MOLT-4 leukemia; NCI-H23 lung; MCF7 breast; RXF 393 renal; MDA-MB-231 breast; SR leukemia; HCT-15 colon; HOP-92 NSCLC; HS 578T breast; HT29 colon.
Common to all, as to test: NCI-60 cell line screen, 48 h

Molecules are shown by their SMILES.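 Interpolation was linear, between the two tested concentrations surrounding the appropriate level; five concentrations were tested over 48 hours in 96-well plates. Abbreviation: GI50, concentration required for 50% inhibition of growth. TGI denotes the concentration required for complete inhibition of growth.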

Take `CCOc1ccc([C@@H]2[C@@H](Oc3ccccc3)C(=O)N2c2cc(OC)c(OC)c(OC)c2)cc1`: the GI50 with MOLT-4 leukemia is 0.17 µM; in the experiment on NCI-H23 lung it was 0.467 µM; in the experiment on MCF7 breast, 0.0431 µM; with RXF 393 renal, 0.0446 µM; in the experiment with MDA-MB-231 breast, 0.177 µM; with SR leukemia, 0.0483 µM. For the same molecule, the GI50 with HCT-15 colon is 0.186 µM; in the experiment with HOP-92 NSCLC it was 0.642 µM; with HS 578T breast, 0.0583 µM; with HT29 colon, 0.0491 µM. In addition, the TGI in the experiment with MOLT-4 leukemia, in the experiment with NCI-H23 lung, in the experiment on MCF7 breast, in the experiment on RXF 393 renal, in the experiment with MDA-MB-231 breast and in the experiment with SR leukemia was above 100 µM throughout. In addition, the TGI was above 100 µM in the experiment with HCT-15 colon, above 100 µM with HOP-92 NSCLC, above 100 µM in the experiment on HS 578T breast and 0.522 µM in the experiment with HT29 colon.
As for `COc1ccc(Nn2c(SCC(=O)Nc3nc(-c4ccc(Cl)cc4)cs3)nc(C)c2C)cc1`, the GI50 is 2.54 µM in the experiment with MOLT-4 leukemia; 1.53 µM in the experiment on NCI-H23 lung; 3.36 µM in the experiment on MCF7 breast; 3.53 µM in the experiment on RXF 393 renal; 8.37 µM with MDA-MB-231 breast; 7.02 µM in the experiment with SR leukemia. For the same molecule, the GI50 is 4.79 µM in the experiment with HCT-15 colon, 2.42 µM in the experiment with HOP-92 NSCLC, 11.8 µM with HS 578T breast and 4.61 µM with HT29 colon. Also, the TGI in the experiment with MOLT-4 leukemia was above 100 µM; in the experiment on NCI-H23 lung it was above 100 µM; in the experiment on MCF7 breast it was 25.5 µM; in the experiment on RXF 393 renal, 9.64 µM; in the experiment on MDA-MB-231 breast it was above 100 µM; with SR leukemia it was above 100 µM. Moreover, the TGI was above 100 µM with HCT-15 colon, 7.8 µM in the experiment with HOP-92 NSCLC, above 100 µM in the experiment with HS 578T breast and 50.4 µM with HT29 colon.
Take `CCCCCCCCCCCCCCCCCC1=NCCN1CS(=O)(=O)O`: the GI50 in the experiment on MOLT-4 leukemia was 10.2 µM; with NCI-H23 lung, 15.4 µM; with MCF7 breast it was 13.4 µM; with RXF 393 renal, 15.4 µM; in the experiment with MDA-MB-231 breast it was 9.34 µM; in the experiment with SR leukemia, 7.85 µM. Moreover, the GI50 is 4.49 µM in the experiment with HCT-15 colon, 7.82 µM in the experiment on HOP-92 NSCLC, 11.6 µM with HS 578T breast and 4.44 µM in the experiment on HT29 colon. The TGI is 38.6 µM in the experiment on MOLT-4 leukemia; 33.4 µM in the experiment on NCI-H23 lung; 35.2 µM with MCF7 breast; 35.6 µM with RXF 393 renal; 23.7 µM in the experiment with MDA-MB-231 breast; above 100 µM in the experiment on SR leukemia. For the same molecule, the TGI was 23.5 µM with HCT-15 colon, 26.2 µM with HOP-92 NSCLC, 40 µM in the experiment with HS 578T breast and 19.9 µM in the experiment on HT29 colon.
Consider `COc1ccc(NC(=O)n2nc(N)c3ccccc32)cc1OC`, for which the GI50 is 39.4 µM in the experiment on MOLT-4 leukemia; 83.5 µM with NCI-H23 lung; 29.5 µM in the experiment on MCF7 breast; 95.2 µM in the experiment on RXF 393 renal; 53.6 µM in the experiment on MDA-MB-231 breast; 29.3 µM with SR leukemia. Moreover, the GI50 with HCT-15 colon was 44.1 µM; in the experiment on HOP-92 NSCLC it was 24.6 µM; with HS 578T breast, 43.3 µM; with HT29 colon, 48.2 µM. In addition, the TGI in the experiment with MOLT-4 leukemia, in the experiment with NCI-H23 lung, in the experiment with MCF7 breast, with RXF 393 renal, in the experiment on MDA-MB-231 breast and with SR leukemia was above 100 µM throughout. Further, the TGI in the experiment on HCT-15 colon, with HOP-92 NSCLC, with HS 578T breast and in the experiment on HT29 colon was above 100 µM throughout.
Turning to `COc1cc2c(cc1OCCOS(C)(=O)=O)N=C[C@@H]1CCCN1C2=O`, the TGI with MOLT-4 leukemia was 65.8 µM; in the experiment on NCI-H23 lung it was 25.2 µM; with MCF7 breast it was above 100 µM; in the experiment on RXF 393 renal, above 100 µM; in the experiment on MDA-MB-231 breast it was 39.3 µM; in the experiment with SR leukemia, 32.9 µM. In addition, the TGI in the experiment with HCT-15 colon was 31.1 µM; in the experiment with HOP-92 NSCLC it was 50.6 µM; with HS 578T breast, 81 µM; in the experiment on HT29 colon, above 100 µM. Besides, the GI50 in the experiment with NCI-H23 lung was 12.2 µM; in the experiment with MDA-MB-231 breast it was 16.5 µM; in the experiment on SR leukemia it was 11.1 µM; with HCT-15 colon, 16.5 µM.
Consider `NC(N)=NS(=O)(=O)c1ccc(NCc2c3ccccc3nc3ccccc23)cc1`, for which the TGI with MOLT-4 leukemia is above 16.5 µM; in the experiment on NCI-H23 lung, 13.2 µM; in the experiment with MCF7 breast, 17.5 µM; in the experiment on RXF 393 renal it was 42.1 µM; in the experiment with MDA-MB-231 breast, above 100 µM; in the experiment on SR leukemia, 12.6 µM. For the same molecule, the TGI in the experiment with HCT-15 colon is above 100 µM; with HOP-92 NSCLC, 9.01 µM; in the experiment on HS 578T breast it was 28.6 µM; in the experiment with HT29 colon, above 100 µM.
Turning to `CC(=O)OC1CC(n2cc(F)c(=O)[nH]c2=O)OC1CO` (centres undefined), the TGI is above 100 µM with MOLT-4 leukemia; 77.1 µM in the experiment with NCI-H23 lung; above 28.3 µM in the experiment with MCF7 breast; above 100 µM with RXF 393 renal; above 100 µM in the experiment with MDA-MB-231 breast; above 100 µM in the experiment with SR leukemia. Moreover, the TGI with HCT-15 colon was above 100 µM; in the experiment on HOP-92 NSCLC it was above 69 µM; in the experiment with HS 578T breast, above 100 µM; in the experiment on HT29 colon, above 100 µM.
As to `C1CCN(CCC2CCCCN2)CC1` (centres undefined), the TGI with MOLT-4 leukemia, with NCI-H23 lung, with MCF7 breast, in the experiment with RXF 393 renal, with MDA-MB-231 breast and with SR leukemia was above 100 µM each time. Also, the TGI in the experiment with HCT-15 colon, in the experiment with HOP-92 NSCLC, with HS 578T breast and in the experiment with HT29 colon was above 100 µM throughout.
For the molecule `CCCCCCCC/C=C/CCCCCCCCC1=NCCN1CCO`, the GI50 in the experiment on MOLT-4 leukemia is 2.1 µM; with NCI-H23 lung it was 10.9 µM; in the experiment on MCF7 breast it was 1.77 µM; in the experiment with RXF 393 renal it was 3.88 µM; in the experiment with MDA-MB-231 breast it was 1.99 µM; with SR leukemia, 1.9 µM. In addition, the GI50 in the experiment on HCT-15 colon was 2.42 µM; in the experiment with HOP-92 NSCLC, 0.976 µM; with HS 578T breast it was 2.37 µM; in the experiment on HT29 colon, 2.16 µM. Moreover, the TGI was found to be 4.73 µM in the experiment with MOLT-4 leukemia; 28.3 µM in the experiment with NCI-H23 lung; 4.02 µM in the experiment with MCF7 breast; 19.6 µM in the experiment with RXF 393 renal; 4.19 µM in the experiment on MDA-MB-231 breast; 4.95 µM in the experiment on SR leukemia. Besides, the TGI in the experiment with HCT-15 colon amounted to 7.58 µM; in the experiment on HOP-92 NSCLC, 3.4 µM; with HS 578T breast, 7.68 µM; in the experiment with HT29 colon it was 5.21 µM.
Take `C=C(C)[C@@H]1CC[C@]2(C)[C@H](C(=O)C=C3[C@@H]4C[C@](C)(C(=O)N5CCN(C)CC5)CC[C@]4(C)CC[C@]32C)[C@@]1(C)CCC#N`: the GI50 is 2.95 µM in the experiment on MOLT-4 leukemia; 6.97 µM with NCI-H23 lung; 5.45 µM in the experiment with MCF7 breast; 5.32 µM in the experiment with RXF 393 renal; 7.58 µM in the experiment on MDA-MB-231 breast; 1.78 µM in the experiment with SR leukemia. Also, the GI50 was 4.2 µM with HCT-15 colon, 3.25 µM in the experiment on HOP-92 NSCLC, 7.99 µM in the experiment on HS 578T breast and 2.38 µM with HT29 colon. The TGI with MOLT-4 leukemia is 10.9 µM; with NCI-H23 lung it was 14.3 µM; in the experiment on MCF7 breast, 12.5 µM; with RXF 393 renal it was 11.4 µM; in the experiment on MDA-MB-231 breast, 14.6 µM; in the experiment with SR leukemia, 9.07 µM. Besides, the TGI with HCT-15 colon came out at 10.9 µM; in the experiment with HOP-92 NSCLC, 10.2 µM; with HS 578T breast, 20.9 µM; in the experiment with HT29 colon, 8.49 µM.
Turning to `CCCCCC(O)C1C(=O)OC(C)C(O)/C=C/C=C/C=C/C=C\C=C(\C)C(O)CC(O)CC(O)CC(O)CC(O)CC(O)CC1O` (centres undefined), the GI50 in the experiment on MOLT-4 leukemia, with NCI-H23 lung, with MCF7 breast, in the experiment on RXF 393 renal, with MDA-MB-231 breast and in the experiment on SR leukemia was above 100 µM each time. Moreover, the GI50 with HCT-15 colon, in the experiment with HOP-92 NSCLC, with HS 578T breast and in the experiment on HT29 colon was above 100 µM each time. Also, the TGI with MOLT-4 leukemia, with NCI-H23 lung, with MCF7 breast, with RXF 393 renal, in the experiment on MDA-MB-231 breast and in the experiment with SR leukemia was above 100 µM each time. In addition, the TGI with HCT-15 colon, in the experiment with HOP-92 NSCLC, in the experiment on HS 578T breast and with HT29 colon was above 100 µM throughout.
`C/C(=N\NC(=O)c1ccncc1)c1ccc2ccccc2c1O`: the TGI in the experiment on MOLT-4 leukemia was 40.3 µM; in the experiment on NCI-H23 lung it was above 51 µM; in the experiment with MCF7 breast, 14 µM; with RXF 393 renal it was above 79.6 µM; with MDA-MB-231 breast, above 91 µM; in the experiment with SR leukemia, 32 µM. For the same molecule, the TGI is above 100 µM with HCT-15 colon, above 100 µM in the experiment with HOP-92 NSCLC, 98.1 µM in the experiment with HS 578T breast and above 58.6 µM in the experiment with HT29 colon.
As to `CC(C)CCOc1ccc(-c2n[nH]c(C(F)(F)F)c2-c2cncc(C#N)c2)c(O)c1`, the GI50 was 2.47 µM with MOLT-4 leukemia; 1.77 µM in the experiment with NCI-H23 lung; 2.23 µM with MCF7 breast; 1.96 µM in the experiment on RXF 393 renal; 2.43 µM in the experiment with MDA-MB-231 breast; 2.01 µM in the experiment with SR leukemia. Besides, the GI50 with HCT-15 colon was 2.4 µM; in the experiment with HOP-92 NSCLC, 0.519 µM; in the experiment on HS 578T breast, 2.91 µM; in the experiment with HT29 colon it was 2.92 µM. In addition, the TGI with MOLT-4 leukemia was 12.7 µM; in the experiment with NCI-H23 lung it was 7.59 µM; in the experiment with MCF7 breast it was above 100 µM; in the experiment with RXF 393 renal, 6.15 µM; in the experiment on MDA-MB-231 breast, 6.43 µM; in the experiment on SR leukemia, 11.8 µM. Moreover, the TGI was determined as 13.4 µM in the experiment on HCT-15 colon, 3.33 µM in the experiment with HOP-92 NSCLC, 21.4 µM in the experiment on HS 578T breast and 14.1 µM with HT29 colon.
